# In ChEMBL document CHEMBL1201862, “PubChem BioAssay data set” (2004):
#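 Dose response: 5 concentrations. Exposure: 48 h. Format: 96-well plates. Endpoint: linear interpolation; highest concentration if not reached. GI50 marks 50% less growth.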 Calls of active or inactive are those of the source. No stated cut-off is given here; in the data, active = GI50 up to about 1.1 µM and inactive = higher.
# How the values were obtained:
# Test in all cases: NCI anticancer screen, dose series, 48 h
# [1] = test system: NCI-H226
# [2] = test system: Malme-3M
# [3] = test system: HT-29
# [4] = test system: SNB-75
# [5] = test system: SF-295
# [6] = test system: RXF 393
# [7] = test system: SN12C
# [8] = test system: CAKI-1
# [9] = test system: SF-539
# [10] = test system: OVCAR-8
# [11] = test system: HOP-62
# [12] = test system: K562
# [13] = test system: HCC 2998
# [14] = test system: BT-549
# [15] = test system: MCF7
# [16] = test system: SK-MEL-2
# [17] = test system: SK-MEL-28
# [18] = test system: SF-268
# [19] = test system: MDA-MB-231
# [20] = test system: KM12
# [21] = test system: SW-620
# [22] = test system: OVCAR-4
# [23] = test system: NCI/ADR-RES
# [24] = test system: M14
# [25] = test system: MDA-MB-435
# [26] = test system: SK-OV-3
# [27] = test system: SNB-19
# [28] = test system: 786-0
# [29] = test system: MOLT-4
# [30] = test system: HCT-116
# [31] = test system: SK-MEL-5
# [32] = test system: T47D
# [33] = test system: COLO 205
# [34] = test system: HOP-92
# [35] = test system: OVCAR-3
# [36] = test system: NCI-H23
# [37] = test system: A549
# [38] = test system: UO-31
# [39] = test system: OVCAR-5
# [40] = test system: MDA-N
# [41] = test system: HCT-15
# [42] = test system: UACC-257
# [43] = test system: HL-60
# [44] = test system: U-251
# [45] = test system: DU-145
# [46] = test system: PC-3
# [47] = test system: UACC-62
# [48] = test system: CCRF-CEM
# [49] = test system: NCI-H522
# [50] = test system: EKVX
# [51] = test system: LOX IMVI
# [52] = test system: IGROV-1
# [53] = test system: NCI-H460
# [54] = test system: SR
# [55] = test system: TK-10
# [56] = test system: A498
# [57] = test system: ACHN
smiles,measurement,setting,value
CC(=O)OCC(OC(C)=O)C(OC(C)=O)C(C=NN(C(C)=O)S(=O)(=O)c1ccc(/C=C2\NC(=O)NC2=O)cc1)OC(C)=O (centres undefined),GI50,[1],> 100 µM (inactive)
same,GI50,[2],> 100 µM (inactive)
same,GI50,[3],> 100 µM (inactive)
same,GI50,[4],> 100 µM (inactive)
same,GI50,[5],> 100 µM (inactive)
same,GI50,[6],> 100 µM (inactive)
same,GI50,[7],> 100 µM (inactive)
same,GI50,[8],> 100 µM (inactive)
same,GI50,[9],> 100 µM (inactive)
same,GI50,[10],> 100 µM (inactive)
same,GI50,[11],> 100 µM (inactive)
same,GI50,[12],> 100 µM (inactive)
same,GI50,[13],> 100 µM (inactive)
same,GI50,[14],> 100 µM (inactive)
same,GI50,[15],> 100 µM (inactive)
same,GI50,[16],> 100 µM (inactive)
Cc1cccc2c1Oc1cc(Cl)ccc1C2NC(=O)CCN1CCN(CCO)CC1 (centres undefined),GI50,[17],3.13 µM (inactive)
same,GI50,[3],15 µM (inactive)
same,GI50,[18],23.3 µM (inactive)
same,GI50,[19],3.69 µM (inactive)
same,GI50,[20],3.55 µM (inactive)
same,GI50,[21],18.3 µM (inactive)
same,GI50,[22],16 µM (inactive)
same,GI50,[23],15.8 µM (inactive)
same,GI50,[4],4.61 µM (inactive)
same,GI50,[24],15.5 µM (inactive)
same,GI50,[5],18.3 µM (inactive)
same,GI50,[25],14 µM (inactive)
same,GI50,[26],25.9 µM (inactive)
same,GI50,[27],22 µM (inactive)
same,GI50,[28],13.6 µM (inactive)
same,GI50,[7],15 µM (inactive)
same,GI50,[29],14.4 µM (inactive)
same,GI50,[30],18.6 µM (inactive)
same,GI50,[9],13.1 µM (inactive)
same,GI50,[10],13.4 µM (inactive)
same,GI50,[31],14 µM (inactive)
same,GI50,[32],17.4 µM (inactive)
same,GI50,[11],17.2 µM (inactive)
same,GI50,[33],17.7 µM (inactive)
same,GI50,[34],10.7 µM (inactive)
same,GI50,[35],17.7 µM (inactive)
same,GI50,[36],23.1 µM (inactive)
same,GI50,[12],18.2 µM (inactive)
same,GI50,[37],11.5 µM (inactive)
same,GI50,[38],12.8 µM (inactive)
same,GI50,[39],21.1 µM (inactive)
same,GI50,[40],4.25 µM (inactive)
same,GI50,[41],18.4 µM
same,GI50,[42],16.6 µM (inactive)
same,GI50,[43],9.46 µM (inactive)
same,GI50,[44],15.1 µM (inactive)
same,GI50,[45],27.2 µM (inactive)
same,GI50,[46],14.5 µM (inactive)
same,GI50,[47],5.66 µM (inactive)
same,GI50,[48],17.7 µM (inactive)
same,GI50,[13],28.6 µM (inactive)
same,GI50,[49],11.1 µM (inactive)
same,GI50,[14],15.1 µM (inactive)
same,GI50,[50],20.8 µM (inactive)
same,GI50,[15],15.2 µM (inactive)
same,GI50,[51],2.75 µM (inactive)
same,GI50,[52],22.1 µM (inactive)
same,GI50,[53],19.1 µM (inactive)
same,GI50,[54],21.8 µM (inactive)
same,GI50,[55],> 10 µM (inactive)
CC(=O)OCC1OC(O[C@@H]2C[C@H]3C(C)(C)[C@H](OC(C)=O)CC[C@]3(C)[C@H]3CCC4=C([C@@H](C)C[C@@H](O)[C@H](O)C(C)(C)O)CC[C@@]4(C)[C@@]32C)C(O)C(O)C1O (some centres undefined),GI50,[18],13.6 µM (inactive)
same,GI50,[44],14.6 µM (inactive)
NC(=S)N/N=C1\C(=O)C=C(Nc2ccc(Cl)cc2Cl)c2ccccc21,GI50,[1],33.6 µM (inactive)
same,GI50,[17],> 100 µM (inactive)
same,GI50,[3],> 100 µM (inactive)
same,GI50,[18],9.38 µM (inactive)
same,GI50,[19],10.3 µM (inactive)
same,GI50,[20],> 100 µM (inactive)
same,GI50,[21],> 100 µM (inactive)
same,GI50,[22],33.2 µM (inactive)
same,GI50,[23],33.6 µM (inactive)
same,GI50,[4],11.5 µM (inactive)
same,GI50,[24],44.5 µM (inactive)
same,GI50,[5],12.8 µM (inactive)
same,GI50,[25],> 100 µM (inactive)
same,GI50,[6],18.6 µM (inactive)
same,GI50,[26],12.4 µM (inactive)
same,GI50,[27],25.5 µM (inactive)
same,GI50,[28],7.85 µM (inactive)
same,GI50,[7],> 100 µM (inactive)
same,GI50,[29],51.2 µM (inactive)
same,GI50,[30],56.2 µM (inactive)
same,GI50,[8],15.8 µM (inactive)
same,GI50,[9],7.38 µM (inactive)
same,GI50,[10],21.9 µM (inactive)
same,GI50,[31],27.4 µM (inactive)
same,GI50,[32],23.5 µM (inactive)
same,GI50,[11],4.34 µM (inactive)
same,GI50,[33],35.9 µM (inactive)
same,GI50,[34],15.8 µM (inactive)
same,GI50,[35],21.3 µM (inactive)
same,GI50,[36],23.2 µM (inactive)
same,GI50,[37],> 100 µM (inactive)
same,GI50,[38],92 µM (inactive)
same,GI50,[39],> 100 µM (inactive)
same,GI50,[40],> 100 µM (inactive)
same,GI50,[41],31.1 µM
same,GI50,[42],> 100 µM (inactive)
same,GI50,[43],84.3 µM (inactive)
same,GI50,[44],11 µM (inactive)
same,GI50,[45],96.6 µM (inactive)
same,GI50,[47],2.64 µM (inactive)
same,GI50,[13],> 100 µM (inactive)
same,GI50,[56],23.3 µM (inactive)
same,GI50,[14],18.7 µM (inactive)
same,GI50,[50],22.1 µM (inactive)
same,GI50,[15],48.9 µM (inactive)
same,GI50,[51],25.3 µM (inactive)
same,GI50,[16],39.3 µM (inactive)
same,GI50,[52],22.2 µM (inactive)
same,GI50,[53],57.4 µM (inactive)
same,GI50,[55],32.4 µM (inactive)
same,GI50,[57],10.3 µM (inactive)
